# Paper PMC12006963, “Application of Deuterium in an M1 Positive Allosteric Modulator Back-Up Program: The Discovery of VU6045422” (ACS Chemical Neuroscience, 2025)
# Entries after “also recorded” stand apart in the source; their conditions may differ.
# Experiments:
# [1] = system: CYP; experiment: Time-dependent CYP inhibition; type: in vitro ADME; details: in words
# [2] = system: 68 GPCRs, ion channels, and transporters; experiment: Eurofins lead profiling screen, whole panel; type: binding; details: 10 μM; significant means >50%
# [3] = target: Cannabinoid CB1 (Homo sapiens, UniProt P21554); experiment: Eurofins radioligand binding
# [4] = system: fEPSPs in layer V medial prefrontal cortex (mPFC); experiment: Slice electrophysiology, long-term depression of fEPSPs; design: species or system mouse; details: 10 μM; layer V recording, stimulation in layer II/III; n = 9
# Procedure: While ago-PAMs induce substantial long-term depression that correlates with a lack of robust procognitive efficacy,[14],[16]−[21] […] Thus, PAM 5 maintains activity dependence of PFC function (Figure 3), and it is expected to display robust precognitive efficacy.
# (A) Normalized time course of the fEPSP slope during baseline, application of 10 μM VU6045422 and washout. (B) Bar graph summarizing the averaged fEPSP slope during the last 5 min of washout (gray bar in panel (A)) compared to the baseline period (ns, p > 0.05, two-tailed paired t test, n = 9).
# [5] = target: Nicotinic Acetylcholine α3β4 (Homo sapiens, UniProt P30926+P32297); experiment: Eurofins radioligand binding
# [6] = target: CYP 3A4 (Homo sapiens, UniProt P08684); experiment: CYP isoform contribution to metabolism: 3A4; type: in vitro ADME
# [7] = system: Purinergic P2X; experiment: Eurofins radioligand binding; design: species or system Rat
# [8] = target: Adenosine A1 (Homo sapiens, UniProt P30542); experiment: Eurofins radioligand binding
# Chain of Adenosine A1 (P30542 whole entry): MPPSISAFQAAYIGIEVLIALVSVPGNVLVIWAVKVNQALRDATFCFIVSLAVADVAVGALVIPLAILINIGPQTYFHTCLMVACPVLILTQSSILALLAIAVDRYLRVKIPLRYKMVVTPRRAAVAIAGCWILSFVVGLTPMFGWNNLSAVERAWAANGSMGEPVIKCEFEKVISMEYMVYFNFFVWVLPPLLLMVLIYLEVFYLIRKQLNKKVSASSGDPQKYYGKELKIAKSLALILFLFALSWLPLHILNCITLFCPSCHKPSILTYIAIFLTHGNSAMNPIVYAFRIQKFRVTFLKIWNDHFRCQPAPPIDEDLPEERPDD
# [9] = target: Transporter, Dopamine (DAT) (Homo sapiens, UniProt Q01959); experiment: Eurofins radioligand binding
# [10] = target: Histamine H2 (Homo sapiens, UniProt P25021); experiment: Eurofins radioligand binding
# Chain of Histamine H2 (P25021 whole entry): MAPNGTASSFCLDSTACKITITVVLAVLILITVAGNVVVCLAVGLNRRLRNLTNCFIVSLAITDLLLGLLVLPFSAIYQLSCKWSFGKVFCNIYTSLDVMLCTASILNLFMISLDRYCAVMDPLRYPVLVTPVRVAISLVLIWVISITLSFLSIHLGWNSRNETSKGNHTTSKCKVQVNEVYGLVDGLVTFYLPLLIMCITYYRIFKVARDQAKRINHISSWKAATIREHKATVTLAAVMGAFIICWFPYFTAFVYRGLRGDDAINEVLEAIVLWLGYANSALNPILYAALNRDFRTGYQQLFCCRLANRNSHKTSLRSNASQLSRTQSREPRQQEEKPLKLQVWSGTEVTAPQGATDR
# [11] = target: Neuropeptide Y Y2 (Homo sapiens, UniProt P49146); experiment: Eurofins radioligand binding
# [12] = Dog MTD with pharmacokinetics study; type: in vivo; details: for AUC / Cmax: dog MTD, plasma
# Source text: (§1) To this end, we prepared a 200 g lot of PAM 5 and performed, in parallel, a dog maximum tolerated dose (MTD) with a pharmacokinetics study and a 14-day rat exploratory toxicology and toxicokinetic study, quantifying plasma Cmax and AUC for both parent 5 and metabolite 6. […] Moreover, while exposure increased with dose, it was nonlinear. […] The series was terminated based on (1) poor and less than dose-proportional increases in systemic exposure, (2) lack of a kinetic isotope effect to diminish production of 6 in dogs and rats, and (3) strong likelihood of even higher concentrations of 6 to be present in man.
# [13] = target: Platelet Activating Factor (PAF) (Homo sapiens, UniProt P25105); experiment: Eurofins radioligand binding
# Chain of Platelet Activating Factor (PAF) (P25105 whole entry): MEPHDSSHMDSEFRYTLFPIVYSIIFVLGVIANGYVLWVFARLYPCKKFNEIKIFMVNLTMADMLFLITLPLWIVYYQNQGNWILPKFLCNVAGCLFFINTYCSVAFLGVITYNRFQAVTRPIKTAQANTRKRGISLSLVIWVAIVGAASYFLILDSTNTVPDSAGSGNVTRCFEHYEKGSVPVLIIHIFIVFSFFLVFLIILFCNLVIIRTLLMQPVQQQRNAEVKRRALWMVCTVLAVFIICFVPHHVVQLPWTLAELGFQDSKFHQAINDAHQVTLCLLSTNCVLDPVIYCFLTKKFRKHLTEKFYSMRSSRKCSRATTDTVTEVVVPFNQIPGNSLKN
# [14] = system: CYP; experiment: CYP induction; type: in vitro ADME; details: in words
# [15] = target: Nicotinic Acetylcholine α1, Bungarotoxin (Homo sapiens, UniProt P02708+P07510+Q07001); experiment: Eurofins radioligand binding; details: read-out: % Inhibition at 10 µM
# [16] = Rat 14-day exploratory toxicology and toxicokinetic study; type: in vivo; details: rat 14-day study, plasma
# Source text: as §1
# [17] = target: Transporter, GABA (Rattus norvegicus, UniProt P23978); experiment: Eurofins radioligand binding
# [18] = target: hERG (Homo sapiens, UniProt Q12809); experiment: hERG manual patch clamp; type: cell-based
# Chain of hERG (Q12809 whole entry): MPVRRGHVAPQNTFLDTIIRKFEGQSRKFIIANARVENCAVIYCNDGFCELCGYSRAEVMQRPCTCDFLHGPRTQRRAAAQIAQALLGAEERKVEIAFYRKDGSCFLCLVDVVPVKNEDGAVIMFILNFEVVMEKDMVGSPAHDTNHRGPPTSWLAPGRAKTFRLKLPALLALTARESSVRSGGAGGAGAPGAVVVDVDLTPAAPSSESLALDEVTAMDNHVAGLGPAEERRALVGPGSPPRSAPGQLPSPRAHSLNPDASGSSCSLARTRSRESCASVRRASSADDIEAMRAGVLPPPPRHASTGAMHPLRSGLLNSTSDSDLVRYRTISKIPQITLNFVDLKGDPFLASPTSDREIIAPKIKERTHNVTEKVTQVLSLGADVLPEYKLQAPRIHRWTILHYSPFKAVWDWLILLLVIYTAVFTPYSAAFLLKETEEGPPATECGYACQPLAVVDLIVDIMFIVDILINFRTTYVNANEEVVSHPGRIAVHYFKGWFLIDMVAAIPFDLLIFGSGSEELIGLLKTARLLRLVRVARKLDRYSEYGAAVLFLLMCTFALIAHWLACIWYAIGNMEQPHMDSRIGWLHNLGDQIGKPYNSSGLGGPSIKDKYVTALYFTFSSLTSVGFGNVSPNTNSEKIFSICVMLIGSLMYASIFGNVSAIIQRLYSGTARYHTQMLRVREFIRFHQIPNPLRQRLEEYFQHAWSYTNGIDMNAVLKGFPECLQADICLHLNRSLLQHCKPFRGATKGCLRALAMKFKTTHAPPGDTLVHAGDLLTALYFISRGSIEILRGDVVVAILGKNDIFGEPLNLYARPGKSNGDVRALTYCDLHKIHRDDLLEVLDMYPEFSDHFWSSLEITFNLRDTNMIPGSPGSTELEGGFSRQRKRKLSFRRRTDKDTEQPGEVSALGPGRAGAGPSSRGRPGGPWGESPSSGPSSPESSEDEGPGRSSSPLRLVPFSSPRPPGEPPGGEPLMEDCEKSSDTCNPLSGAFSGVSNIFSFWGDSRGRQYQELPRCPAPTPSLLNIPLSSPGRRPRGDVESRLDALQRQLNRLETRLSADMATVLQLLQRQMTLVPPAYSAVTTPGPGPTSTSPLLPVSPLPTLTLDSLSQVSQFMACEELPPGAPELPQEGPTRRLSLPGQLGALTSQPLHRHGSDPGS
# [19] = target: Dopamine D3 (Homo sapiens, UniProt P35462); experiment: Eurofins radioligand binding
# Chain of Dopamine D3 (P35462 whole entry): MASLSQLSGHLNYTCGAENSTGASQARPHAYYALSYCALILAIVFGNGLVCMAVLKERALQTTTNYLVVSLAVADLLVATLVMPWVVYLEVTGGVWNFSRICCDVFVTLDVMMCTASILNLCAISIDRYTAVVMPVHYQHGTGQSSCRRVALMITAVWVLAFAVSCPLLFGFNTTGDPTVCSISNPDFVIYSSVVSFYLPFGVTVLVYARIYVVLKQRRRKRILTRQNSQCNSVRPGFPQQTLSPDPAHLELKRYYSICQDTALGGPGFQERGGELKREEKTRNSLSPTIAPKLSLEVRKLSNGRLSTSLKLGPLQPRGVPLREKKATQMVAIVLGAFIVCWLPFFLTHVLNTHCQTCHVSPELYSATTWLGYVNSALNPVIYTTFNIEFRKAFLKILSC
# [20] = target: Neuropeptide Y Y1 (Homo sapiens, UniProt P25929); experiment: Eurofins radioligand binding
# [21] = target: Muscarinic M3 (Homo sapiens, UniProt P20309); experiment: Eurofins radioligand binding
# [22] = target: Adrenergic α1B (Homo sapiens, UniProt P35368); experiment: Eurofins radioligand binding
# Chain of Adrenergic α1B (P35368 whole entry, canonical isoform): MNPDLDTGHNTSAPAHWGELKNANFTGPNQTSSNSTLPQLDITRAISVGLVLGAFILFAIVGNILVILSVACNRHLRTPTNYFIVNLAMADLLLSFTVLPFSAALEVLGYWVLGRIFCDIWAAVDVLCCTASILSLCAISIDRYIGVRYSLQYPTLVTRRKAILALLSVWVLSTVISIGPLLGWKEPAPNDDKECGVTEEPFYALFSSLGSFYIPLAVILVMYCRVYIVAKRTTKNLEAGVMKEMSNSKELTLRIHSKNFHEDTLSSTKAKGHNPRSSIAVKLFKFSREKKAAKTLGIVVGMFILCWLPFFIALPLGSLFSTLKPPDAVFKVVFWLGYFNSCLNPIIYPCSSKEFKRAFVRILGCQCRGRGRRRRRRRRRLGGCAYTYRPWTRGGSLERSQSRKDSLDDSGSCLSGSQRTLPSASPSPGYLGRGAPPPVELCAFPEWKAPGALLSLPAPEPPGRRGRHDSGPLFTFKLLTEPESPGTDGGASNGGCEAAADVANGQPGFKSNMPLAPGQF
# [23] = target: CYP 3A5 (Homo sapiens, UniProt P20815); experiment: CYP isoform contribution to metabolism: 3A5; type: in vitro ADME
# Chain of CYP 3A5 (P20815 whole entry, canonical isoform): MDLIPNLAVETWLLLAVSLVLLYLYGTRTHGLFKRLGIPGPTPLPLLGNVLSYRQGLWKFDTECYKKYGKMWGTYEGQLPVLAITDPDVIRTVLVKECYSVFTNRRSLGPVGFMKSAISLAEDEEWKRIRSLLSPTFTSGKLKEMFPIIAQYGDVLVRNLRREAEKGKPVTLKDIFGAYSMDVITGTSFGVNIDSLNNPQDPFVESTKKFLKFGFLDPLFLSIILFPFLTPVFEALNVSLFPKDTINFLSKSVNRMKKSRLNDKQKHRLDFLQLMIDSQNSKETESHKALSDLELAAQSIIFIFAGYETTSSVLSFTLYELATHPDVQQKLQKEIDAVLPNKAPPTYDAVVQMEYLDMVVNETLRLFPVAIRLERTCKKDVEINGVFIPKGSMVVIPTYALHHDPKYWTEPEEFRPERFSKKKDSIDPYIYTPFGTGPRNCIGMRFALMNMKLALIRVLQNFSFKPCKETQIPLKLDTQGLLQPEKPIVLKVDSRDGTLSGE
# [24] = target: bile salt export pump (BSEP) (Homo sapiens, UniProt O95342); experiment: Bile salt export pump inhibition; type: in vitro ADME
# [25] = target: Adrenergic α1D (Homo sapiens, UniProt P25100); experiment: Eurofins radioligand binding
# [26] = target: Histamine H1 (Homo sapiens, UniProt P35367); experiment: Eurofins radioligand binding
# [27] = target: Calcium Channel N-Type (Rattus norvegicus, UniProt Q02294); experiment: Eurofins radioligand binding
# [28] = target: Endothelin ETB (Homo sapiens, UniProt P24530); experiment: Eurofins radioligand binding
# Chain of Endothelin ETB (P24530 27-442): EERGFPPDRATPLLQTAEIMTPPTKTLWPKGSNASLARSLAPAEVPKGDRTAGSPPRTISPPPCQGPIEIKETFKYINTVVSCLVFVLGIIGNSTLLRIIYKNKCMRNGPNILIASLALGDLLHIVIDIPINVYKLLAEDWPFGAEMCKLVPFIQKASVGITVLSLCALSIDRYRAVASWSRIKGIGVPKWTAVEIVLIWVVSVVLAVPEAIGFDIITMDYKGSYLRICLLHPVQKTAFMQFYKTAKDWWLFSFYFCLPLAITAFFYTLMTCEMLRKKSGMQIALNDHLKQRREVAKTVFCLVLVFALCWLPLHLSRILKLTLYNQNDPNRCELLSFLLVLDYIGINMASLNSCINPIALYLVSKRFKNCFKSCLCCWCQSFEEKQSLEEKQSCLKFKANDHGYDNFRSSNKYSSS
# [29] = target: Epidermal Growth Factor (EGF) (Homo sapiens, UniProt P00533); experiment: Eurofins radioligand binding
# [30] = target: Endothelin ETA (Homo sapiens, UniProt P25101); experiment: Eurofins radioligand binding
# [31] = target: Sigma σ1 (Homo sapiens, UniProt Q99720); experiment: Eurofins radioligand binding
# Chain of Sigma σ1 (Q99720 whole entry): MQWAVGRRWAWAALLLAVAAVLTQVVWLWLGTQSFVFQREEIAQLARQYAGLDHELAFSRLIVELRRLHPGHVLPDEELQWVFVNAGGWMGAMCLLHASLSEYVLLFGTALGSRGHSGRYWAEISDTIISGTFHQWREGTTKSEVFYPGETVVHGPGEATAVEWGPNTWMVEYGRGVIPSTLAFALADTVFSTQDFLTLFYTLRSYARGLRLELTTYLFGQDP
# [32] = system: Sodium Channel, Site 2; experiment: Eurofins radioligand binding; design: species or system Rat
# [33] = target: Opiate κ (OP2, KOP) (Homo sapiens, UniProt P41145); experiment: Eurofins radioligand binding
# Chain of Opiate κ (OP2, KOP) (P41145 whole entry): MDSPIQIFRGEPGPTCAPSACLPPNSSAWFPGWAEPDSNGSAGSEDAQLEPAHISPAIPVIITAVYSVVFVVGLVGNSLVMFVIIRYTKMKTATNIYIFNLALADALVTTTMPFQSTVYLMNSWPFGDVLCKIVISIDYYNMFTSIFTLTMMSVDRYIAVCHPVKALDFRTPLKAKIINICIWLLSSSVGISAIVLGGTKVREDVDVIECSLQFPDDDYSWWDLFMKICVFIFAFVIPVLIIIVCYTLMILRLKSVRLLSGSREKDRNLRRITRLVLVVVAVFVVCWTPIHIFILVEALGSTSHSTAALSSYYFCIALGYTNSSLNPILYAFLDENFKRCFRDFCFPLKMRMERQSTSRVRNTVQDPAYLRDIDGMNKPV
compound,measurement,setting,value
[2H]C1([2H])c2ncccc2C(=O)N1Cc1c(F)cc(-c2cccc3nn(C([2H])([2H])[2H])cc23)cc1F [compound 5],time-dependent CYP inhibition liability,[1],no time-dependent CYP inhibition or CYP induction liabilities
same,"activity in Eurofins lead profiling screen, whole panel",[2],no significant activity
same,inhibition at 10 µM,[3],-3%
same,change in fEPSPs / long-term depression,[4],no significant changes; also recorded: did not induce a significant long-term depression
same,inhibition at 10 µM,[5],-7%
same,contribution of CYP 3A4 to metabolism,[6],92.6%
same,% Inhibition at 10 µM,[7],4%
same,inhibition at 10 µM,[8],30%
same,inhibition at 10 µM,[9],32%
same,inhibition at 10 µM,[10],2%
same,inhibition at 10 µM,[11],-3%
same,AUC,[12]; 30 mg/kg PO of 5,34.9 µg·h/mL
same,Cmax,[12]; 30 mg/kg PO of 5,2400 ng/mL
same,AUC,[12]; 300 mg/kg PO of 5,68 µg·h/mL
same,Cmax,[12]; 300 mg/kg PO of 5,3620 ng/mL
same,AUC,[12]; 1000 mg/kg PO of 5,103 µg·h/mL
same,Cmax,[12]; 1000 mg/kg PO of 5,5560 ng/mL
same,tolerability in dog MTD,"[12]; dog, in vivo, po",well-tolerated
same,inhibition at 10 µM,[13],22%
same,CYP induction liability,[14],no time-dependent CYP inhibition or CYP induction liabilities
same,inhibition at 10 µM,[15],8%
same,AUC at 14 days,"[16]; day 14, 300 mg/kg PO of 5",321 µg·h/mL
same,Cmax at 14 days,"[16]; day 14, 300 mg/kg PO of 5",22200 ng/mL
same,AUC at 14 days,"[16]; day 14, 750 mg/kg PO of 5",536 µg·h/mL
same,Cmax at 14 days,"[16]; day 14, 750 mg/kg PO of 5",31300 ng/mL
same,AUC at 14 day,"[16]; day 14, 1500 mg/kg PO of 5",518 µg·h/mL
same,Cmax at 14 days,"[16]; day 14, 1500 mg/kg PO of 5",30700 ng/mL
same,inhibition at 10 µM,[17],31%
same,IC50,[18],21 µM
same,inhibition at 10 µM,[19],-1%
same,inhibition at 10 µM,[20],-13%
same,inhibition at 10 µM,[21],-10%
same,inhibition at 10 µM,[22],10%
same,contribution of CYP 3A5 to metabolism,[23],5.8%
same,IC50,[24],42.3 µM
same,inhibition at 10 µM,[25],-15%
same,inhibition at 10 µM,[26],2%
same,inhibition at 10 µM,[27],-2%
same,inhibition at 10 µM,[28],1%
same,inhibition at 10 µM,[29],3%
same,inhibition at 10 µM,[30],-4%
same,inhibition at 10 µM,[31],11%
same,% Inhibition at 10 µM,[32],14%
same,inhibition at 10 µM,[33],9%
